In US12384787B2, “Fused heterocyclic compounds and their use as pest control agents” (PI INDUSTRIES LTD., priority 2019, dated 2025):

What was measured:
Type in all cases: in vivo
Helicoverpa armigera = Helicoverpa armigera diet incorporation method; settings: third instar larvae, 96 h after release, dead and moribund combined, compared to untreated control, read-out: Percent mortality
Procedure: Diet incorporation method was used, in which the required quantity of test compounds were weighed and dissolved in a surfactant solution, kept on vortex for 90 min for proper mixing, then was diluted with water to the desired test concentrations. The solutions were incorporated into semi-synthetic diet when the temperature reached approximately 50° C. in the bioassay containers. The diet and solution was stirred thoroughly for properly mixing and then left to cool for 30 min. The solidified diet was cut into equal pieces, and then each piece was transferred into one cell of the bio-assay trays. A single third starved instar larva was released into each of these cells of the bioassay trays and each tray was covered with a lid. The bio-assay trays were kept under laboratory conditions at a temperature of 25° C. and relative humidity of 70%. Observations on dead, moribund and alive larvae were recorded at 96 h after the release of the larvae. Percent mortality was calculated by combining dead and moribund larvae and comparing the result to the one of the untreated control.

Spodoptera litura = Spodoptera litura diet incorporation method; settings: third instar larvae, 96 h after release, dead and moribund combined, compared to untreated control, read-out: Percent mortality
Procedure: Diet incorporation method was used, in which the required quantity of test compounds were weighed and dissolved in surfactant solution, kept on vortex for 90 min for proper mixing, then diluted with water to the desired test concentrations. The solutions were incorporated into semi-synthetic diet when the temperature reached approximately 50° C. in the bioassay containers. The diet and solution was stirred thoroughly for properly mixing and was left to cool for 30 min. The solidified diet was cut into equal pieces, and then each piece was transferred into one cell of the bio-assay trays. A single starved third instar larva was released into each of these cells of the bioassay trays and the tray was covered with a lid. The bio-assay trays were kept under laboratory conditions at a temperature of 25° C. and relative humidity of 70%. Observations on dead, moribund and alive larvae were recorded at 96 h after the release of the larvae. Percent mortality was calculated by combining dead and moribund larvae and comparing the result to the one of the untreated control.

Plutella xylostella = Plutella xylostella leaf dip method (cabbage leaves); settings: foliar, second instar larvae, 72 h after release, dead and moribund combined, compared to untreated control, read-out: Percent mortality
Procedure: The leaf dip method was used for testing, wherein the required quantity of the compounds were weighed and dissolved in a surfactant solution, kept on a Vortex at 2000 rpm with zirconia beads for 90 min for proper mixing and then diluted with 0.01% Triton-X solution to the desired test concentration. Cabbage leaves were dipped in the solution for 10 seconds, shade dried for 20 min and then transferred to bioassay trays. A single second instar larva was released into each bioassay tray cell and the tray was covered with a lid. The bio-assay trays were kept under laboratory conditions at a temperature of 25° C. and relative humidity of 70%. Observations on dead, moribund and living larvae were recorded at 72 h after the release. Percent mortality was calculated by combining dead and moribund larvae and comparing the result to the one of the untreated control.

Row | SMILES | mortality at 300 ppm (Helicoverpa armigera) [%] | mortality at 300 ppm (Spodoptera litura) [%] | mortality at 300 ppm (Plutella xylostella) [%]
1 | CCS(=O)(=O)c1nn2c(C)cc(C)nc2c1-c1nc2cc(S(=O)(=O)C(F)(F)F)ccc2o1 [Compound 15, 2-(2-(Ethylsulfonyl)-5,7-dimethylpyrazolo[1,5-a]pyrimidin-3-yl)-5-((trifluoromethyl)sulfonyl)benzo[d]oxazole] | > 70 | > 70 | > 70
2 | CCS(=O)(=O)c1nn2c(-c3ccc(F)cc3)ccnc2c1-c1nc2cc(C(F)(F)F)ncc2n1C [Compound 21, 2-(2-(Ethylsulfonyl)-7-(4-fluorophenyl)pyrazolo[1,5-a]pyrimidin-3-yl)-3-methyl-6-(trifluoromethyl)-3H-imidazo[4,5-c]pyridine] | > 70 | > 70 | > 70
3 | CCS(=O)(=O)c1nn2c(-c3ccc(F)cc3)ccnc2c1-c1nc2cc(C(F)(F)F)cnc2n1C [Compound 25, 2-(2-(Ethylsulfonyl)-7-(4-fluorophenyl)pyrazolo[1,5-a]pyrimidin-3-yl)-3-methyl-6-(trifluoromethyl)-3H-imidazo[4,5-b]pyridine] | > 70 | > 70 | > 70
4 | CCSc1nn2c(-c3ccc(OC(F)(F)F)cc3)ccnc2c1-c1nc2cc(C(F)(F)F)ncc2n1C [Compound 28, 2-(2-(Ethylthio)-7-(4-(trifluoromethoxy)phenyl)pyrazolo[1,5-a]pyrimidin-3-yl)-3-methyl-6-(trifluoromethyl)-3H-imidazo[4,5-c]pyridine] | > 70 |  | > 70
5 | CCS(=O)(=O)c1nn2c(-c3ccc(OC(F)(F)F)cc3)ccnc2c1-c1nc2cc(S(=O)(=O)C(F)(F)F)ccc2o1 [Compound 32, 2-(2-(Ethylsulfonyl)-7-(4-(trifluoromethoxy)phenyl)pyrazolo[1,5-a]pyrimidin-3-yl)-5-((trifluoromethyl)sulfonyl)benzo[d]oxazole] | > 70 |  | > 70
6 | CCS(=O)(=O)c1nn2c(-c3ccc(Cl)cc3)ccnc2c1-c1nc2cc(C(F)(F)F)ncc2n1C [Compound 37, 2-(7-(4-Chlorophenyl)-2-(ethylsulfonyl)pyrazolo[1,5-a]pyrimidin-3-yl)-3-methyl-6-(trifluoromethyl)-3H-imidazo[4,5-c]pyridine] |  | > 70 | > 70
7 | CCS(=O)(=O)c1nn2c(-c3ccc(Cl)cc3)ccnc2c1-c1nc2cc(C(F)(F)F)cnc2n1C [Compound 39, 2-(7-(4-Chlorophenyl)-2-(ethylsulfonyl)pyrazolo[1,5-a]pyrimidin-3-yl)-3-methyl-6-(trifluoromethyl)-3H-imidazo[4,5-b]pyridine] | > 70 |  | > 70
8 | CCS(=O)(=O)c1nn2c(-c3ccc(OC(F)(F)C(F)F)cc3)ccnc2c1-c1nc2cc(C(F)(F)F)ncc2n1C [Compound 91, 2-(2-(Ethylsulfonyl)-7-(4-(1,1,2,2-tetrafluoroethoxy)phenyl)pyrazolo[1,5-a]pyrimidin-3-yl)-3-methyl-6-(trifluoromethyl)-3H-imidazo[4,5-c]pyridine] | > 70 |  | > 70
9 | CCSc1nn2c(-c3cccc(Cl)c3)ccnc2c1-c1nc2cc(C(F)(F)F)cnc2n1C [Compound 97, 2-(7-(3-Chlorophenyl)-2-(ethylthio)pyrazolo[1,5-a]pyrimidin-3-yl)-3-methyl-6-(trifluoromethyl)-3H-imidazo[4,5-b]pyridine] | > 70 |  | 
10 | CCS(=O)(=O)c1nn2c(-c3cccc(Cl)c3)ccnc2c1-c1nc2cc(C(F)(F)F)cnc2n1C [Compound 99, 2-(7-(3-Chlorophenyl)-2-(ethylsulfonyl)pyrazolo[1,5-a]pyrimidin-3-yl)-3-methyl-6-(trifluoromethyl)-3H-imidazo[4,5-b]pyridine] | > 70 |  | > 70
11 | CCSc1nn2c(-c3cc(F)cc(Cl)c3)ccnc2c1-c1nc2cc(C(F)(F)F)cnc2n1C [Compound 102, 2-(7-(3-Chloro-5-fluorophenyl)-2-(ethylthio)pyrazolo[1,5-a]pyrimidin-3-yl)-3-methyl-6-(trifluoromethyl)-3H-imidazo[4,5-b]pyridine] | > 70 |  | 
12 | CCS(=O)(=O)c1nn2cc(-c3ccc(OC(F)(F)C(F)F)cc3)cnc2c1-c1nc2cc(C(F)(F)F)ncc2n1C [Compound 109, 2-(2-(Ethylsulfonyl)-6-(4-(1,1,2,2-tetrafluoroethoxy)phenyl)pyrazolo[1,5-a]pyrimidin-3-yl)-3-methyl-6-(trifluoromethyl)-3H-imidazo[4,5-c]pyridine] | > 70 |  | > 70
13 | CCSc1nn2c(-c3ccc(Cl)cc3Cl)ccnc2c1-c1nc2cc(C(F)(F)F)cnc2n1C [Compound 120, 2-(7-(2,4-Dichlorophenyl)-2-(ethylthio)pyrazolo[1,5-a]pyrimidin-3-yl)-3-methyl-6-(trifluoromethyl)-3H-imidazo[4,5-b]pyridine] | > 70 |  | 
14 | CCSc1nn2c(-c3cccc(C(F)(F)F)c3)ccnc2c1-c1nc2cc(C(F)(F)F)cnc2n1C [Compound 126, 2-(2-(Ethylthio)-7-(3-(trifluoromethyl)phenyl)pyrazolo[1,5-a]pyrimidin-3-yl)-3-methyl-6-(trifluoromethyl)-3H-imidazo[4,5-b]pyridine] | > 70 | > 70 | 
15 | CCS(=O)(=O)c1nn2c(-c3cccc(C(F)(F)F)c3)ccnc2c1-c1nc2cc(C(F)(F)F)cnc2n1C [Compound 129, 2-(2-(ethylsulfonyl)-7-(3-(trifluoromethyl)phenyl)pyrazolo[1,5-a]pyrimidin-3-yl)-3-methyl-6-(trifluoromethyl)-3H-imidazo[4,5-b]pyridine] |  | > 70 | > 70
16 | CCS(=O)(=O)c1nn2c(C)ccnc2c1-c1nc2cc(C(F)(F)F)cnc2n1C [Compound 133, 2-(2-(Ethylsulfonyl)-7-methylpyrazolo[1,5-a]pyrimidin-3-yl)-3-methyl-6-(trifluoromethyl)-3H-imidazo[4,5-b]pyridine] |  |  | > 70
17 | CCSc1nn2c(-c3cccc(C(F)(F)F)c3)ccnc2c1-c1nc2cc(C(F)(F)F)ncc2n1C [Compound 134, 2-(2-(Ethylthio)-7-(3-(trifluoromethyl)phenyl)pyrazolo[1,5-a]pyrimidin-3-yl)-3-methyl-6-(trifluoromethyl)-3H-imidazo[4,5-c]pyridine] |  | > 70 | 
18 | CCS(=N)(=O)c1nn2c(-c3cc(Cl)cc(Cl)c3)ccnc2c1-c1nc2cc(C(F)(F)F)cnc2n1C (stereo not drawn) [Compound 135, (7-(3,5-Dichlorophenyl)-3-(3-methyl-6-(trifluoromethyl)-3H-imidazo[4,5-b]pyridin-2-yl)pyrazolo[1,5-a]pyrimidin-2-yl)(ethyl)(imino)-λ^6-sulfanone] |  |  | > 70
19 | CCS(=O)(=O)c1nn2c(-c3cccc(C(F)(F)F)c3)ccnc2c1-c1nc2cc(C(F)(F)F)ncc2n1C [Compound 136, 2-(2-(Ethylsulfonyl)-7-(3-(trifluoromethyl)phenyl)pyrazolo[1,5-a]pyrimidin-3-yl)-3-methyl-6-(trifluoromethyl)-3H-imidazo[4,5-c]pyridine] | > 70 |  | > 70
20 | CCS(=O)(=O)c1nn2c(-c3cccc(F)c3)ccnc2c1-c1nc2cc(C(F)(F)F)ncc2n1C [Compound 137, 2-(2-(Ethylsulfonyl)-7-(3-fluorophenyl)pyrazolo[1,5-a]pyrimidin-3-yl)-3-methyl-6-(trifluoromethyl)-3H-imidazo[4,5-c]pyridine] |  |  | > 70
